# Test system: primary human hepatocytes
# Assay: BrdU cell proliferation assay in cryopreserved primary human hepatocytes
# Type: cell-based
# Conditions: 50 ng/ml, overnight treatment, 4 hour BrdU incubation; control 0.032±0.011
# Protocol: Cryopreserved primary human hepatocytes (CellzDirect catalog #[…], Lot # Hu0948) were plated on a collagen-coated 96 well plate according to the supplier's instructions and allowed to adhere and stabilize for 48 hours. Cells were treated with a compound of formula (II) embodied herein (10 μM final concentration) or HGF (50 ng/ml) overnight, and the next day, cell proliferation was determined using a BrdU assay (Chemicon, catalog #2750) according to the manufacturer's instructions, with a 4 hour incubation period of BrdU. Plates were read at 450 and 550 (background) nm and the difference was taken as an indicator of cell proliferation. Both test compound and HGF stimulated the BrdU incorporation in hepatocytes vs. control: test compound, 0.336±0.072; HGF, 0.388±0.134; and control, 0.032±0.011. Hepatocytes enhanced using the compounds of the invention can be used subsequently for cellular transplant into a human recipient, providing enhanced cell survival and numbers to increase the quality of the cells used in the transplant, the survival of cells after transplant and reduce the number of cells required to achieve the desired outcome of the transplant procedure and restoring or enhancing hepatic function in the recipient.
substance,measurement,value
"HGF: hepatocyte growth factor (scatter factor), a pleiotropic growth factor, used as positive comparator","BrdU incorporation (difference of plate readings at 450 and 550 (background) nm, indicator of cell proliferation)",0.388±0.134

# — US20140171419A1, “ENHANCEMENT OF CELLULAR TRANSPLANTATION USING SMALL MOLECULE MODULATORS HEPATOCYTE GROWTH FACTOR (SCATTER FACTOR) ACTIVITY” (ANGION BIOMEDICA CORP, priority 2009, published 2014)
